Our source for the IC50 values is patent US10543212B2, “Substituted amines for treating cardiac diseases” (Cardurion Pharmaceuticals, LLC, priority 2017, dated 2020).

SMILES strings stand for the structures. Where only a bound is given, the exact number is not on record here.

The target in one assay is T1, Full-length, GST-tagged, human CaMKIIδ (Homo sapiens, UniProt Q13557).
T1 construct: Full-Length, Glutathione-S-Transferase(GST)-Tagged, Human CaMKIIδ was purchased from Carna Biosciences; purchased Carna Biosciences 02-111
T1 sequence (Q13557 1-478 isoform Q13557-12): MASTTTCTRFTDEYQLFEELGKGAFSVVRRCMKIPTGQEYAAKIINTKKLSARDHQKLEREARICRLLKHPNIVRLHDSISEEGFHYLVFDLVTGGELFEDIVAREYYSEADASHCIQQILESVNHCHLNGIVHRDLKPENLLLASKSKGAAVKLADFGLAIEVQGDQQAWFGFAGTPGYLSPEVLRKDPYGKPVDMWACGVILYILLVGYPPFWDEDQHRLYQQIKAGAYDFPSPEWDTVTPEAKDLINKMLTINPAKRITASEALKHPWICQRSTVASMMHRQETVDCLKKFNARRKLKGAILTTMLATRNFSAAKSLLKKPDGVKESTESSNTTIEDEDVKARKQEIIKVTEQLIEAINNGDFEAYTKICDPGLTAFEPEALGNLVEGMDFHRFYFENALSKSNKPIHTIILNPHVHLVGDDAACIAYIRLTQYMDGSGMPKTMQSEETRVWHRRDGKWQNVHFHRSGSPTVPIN
The experiment in a line: CaMKIIδ binding assay (TR-FRET with BODIPY-labeled probe ligand). The settings on record: CaMKIIδ binding assay, results of Table 2. The essentials:
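TR-FRET probe-displacement binding: 0.5 nM GST-CaMKIIδ with 10 μg/mL calmodulin, 1 mM CaCl2, 0.21 nM Tb-anti-GST Ab and 300 nM BODIPY probe in HEPES pH 7.6 buffer. Eight-point 4-fold dilutions, 1 hr at room temperature. IC50 from logistic fit; 100% inhibition defined by 3 μM parent compound.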
For orientation: Time-resolved FRET reads energy transfer from a long-lived donor to a nearby acceptor.
As usually defined, the IC50 is the concentration that inhibits the measured activity by half. A higher IC50 goes with lower potency. In the case of `C[C@@H](Cn1cnnn1)Oc1cc(-c2cnc(Nc3cn(C4CCN(C5CCOCC5)CC4)nc3C3CC3)nc2)ccc1C#N` [Example 546, (S)-2-((1-(1H-tetrazol-1-yl)propan-2-yl)oxy)-4-(2-((3-cyclopropyl-1-(1-(tetrahydro-2H-pyran-4-yl)piperidin-4-yl)-1H-pyrazol-4-yl)amino)pyrimidin-5-yl)benzonitrile], the half-maximal inhibitory concentration (IC50) was under 10 nM.

In turn, `COc1cc2c(cc1Nc1ncc(-c3ccc(Cl)c(O[C@@H](C)Cn4cnnn4)c3)cn1)CN(c1ccnc(C)n1)CC2` [Example 504, (S)-N-(5-(3-((1-(1H-tetrazol-1-yl)propan-2-yl)oxy)-4-chlorophenyl)pyrimidin-2-yl)-6-methoxy-2-(2-methylpyrimidin-4-yl)-1,2,3,4-tetrahydroisoquinolin-7-amine] registered a half-inhibitory concentration (IC50) of 10 to 100 nM.

On to `C[C@@H](Cn1cnnn1)Oc1cc(-c2cnc(Nc3cn(C4CCN(C(=O)OC(C)(C)C)CC4)nc3C(F)(F)F)nc2)ccc1Cl` [Example 482, tert-butyl (S)-4-(4-((5-(3-((1-(1H-tetrazol-1-yl)propan-2-yl)oxy)-4-chlorophenyl)pyrimidin-2-yl)amino)-3-(trifluoromethyl)-1H-pyrazol-1-yl)piperidine-1-carboxylate], for which the IC50 was in the range of 10 to 100 nM.

In turn, `COc1ccc(C(=O)O)cc1Nc1ncc(-c2ccc(Cl)c(O[C@@H](C)Cn3cnnn3)c2)cn1` [Example 540, (S)-3-((5-(3-((1-(1H-tetrazol-1-yl)propan-2-yl)oxy)-4-chlorophenyl)pyrimidin-2-yl)amino)-4-methoxybenzoic acid] came in with an IC50 of at least 100 nM.

`C[C@@H](Cn1cnnn1)Oc1cc(-c2cnc(Nc3cc(C4CCN(C5COC5)CC4)c(F)cc3F)nc2)ccc1Cl` [Example 578, (S)-5-(3-((1-(1H-tetrazol-1-yl)propan-2-yl)oxy)-4-chlorophenyl)-N-(2,4-difluoro-5-(1-(oxetan-3-yl)piperidin-4-yl)phenyl)pyrimidin-2-amine] came in with a concentration for half-maximal inhibition (IC50) of 10 to 100 nM.

Turning to `COC1CCC(N2CCC(n3cc(Nc4ncc(-c5ccc(Cl)c(OC(C)Cn6cnnn6)c5)cn4)c(C(F)(F)F)n3)CC2)CC1` (single isomer, unassigned; more polar) [Example 556, (S)-5-(3-((1-(1H-tetrazol-1-yl)propan-2-yl)oxy)-4-chlorophenyl)-N-(1-(1-(cis or trans-4-methoxycyclohexyl)piperidin-4-yl)-3-(trifluoromethyl)-1H-pyrazol-4-yl)pyrimidin-2-amine, more polar], the IC50 was under 10 nM.

As for `COc1cc2c(cc1Nc1ncc(-c3ccc(Cl)c(O[C@@H](C)Cn4cnnn4)c3)cn1)C(=O)N(CCN(C)C)C2` [Example 512, (S)-6-((5-(3-((1-(1H-tetrazol-1-yl)propan-2-yl)oxy)-4-chlorophenyl)pyrimidin-2-yl)amino)-2-(2-(dimethylamino)ethyl)-5-methoxyisoindolin-1-one], the half-inhibitory concentration (IC50) fell in the range of 10 to 100 nM.

The same assay, now with this note: CaMKIIδ binding assay; activity class per Table 2.
`C[C@@H](Cn1cnnn1)Oc1cc(-c2cnc(Nc3cn([C@H]4C[C@H](NC(=O)OC(C)(C)C)C4)nc3OCC(F)(F)F)nc2)ccc1Cl` [Example 940, tert-butyl (trans-3-(4-((5-(3-(((S)-1-(1H-tetrazol-1-yl)propan-2-yl)oxy)-4-chlorophenyl)pyrimidin-2-yl)amino)-3-(2,2,2-trifluoroethoxy)-1H-pyrazol-1-yl)cyclobutyl)carbamate]: the IC50 lay in the range of 10 to 100 nM.

`C[C@@H](Cn1cnnn1)Oc1cc(-c2cnc(Nc3cn(C4(C(=O)O)CCC4)nc3OCC(F)(F)F)nc2)ccc1Cl` [Example 916, (S)-1-(4-((5-(3-((1-(1H-tetrazol-1-yl)propan-2-yl)oxy)-4-chlorophenyl)pyrimidin-2-yl)amino)-3-(2,2,2-trifluoroethoxy)-1H-pyrazol-1-yl)cyclobutane-1-carboxylic acid] had an IC50 of 10 to 100 nM.

In turn, `CC(=O)OC(C)(C)CN1CC2(CC(n3cc(Nc4ncc(-c5ccc(Cl)c(O[C@@H](C)Cn6cnnn6)c5)cn4)c(C(F)(F)F)n3)C2)C1` [Example 974, (S)-1-(6-(4-((5-(3-((1-(1H-tetrazol-1-yl)propan-2-yl)oxy)-4-chlorophenyl)pyrimidin-2-yl)amino)-3-(trifluoromethyl)-1H-pyrazol-1-yl)-2-azaspiro[3.3]heptan-2-yl)-2-methylpropan-2-yl acetate] returned an IC50 of under 10 nM.

Turning to `CC(C)c1nn(C2CC3(C2)CN(C(=O)OC(C)(C)C)C3)cc1Nc1ncc(-c2ccc(Cl)c(O[C@@H](C)Cn3cnnn3)c2)cn1` [Example 931, tert-butyl (S)-6-(4-((5-(3-((1-(1H-tetrazol-1-yl)propan-2-yl)oxy)-4-chlorophenyl)pyrimidin-2-yl)amino)-3-isopropyl-1H-pyrazol-1-yl)-2-azaspiro[3.3]heptane-2-carboxylate], the half-inhibitory concentration (IC50) was 10 to 100 nM.

`C[C@@H](Cn1cnnn1)Oc1cc(-c2cnc(Nc3cn(C4CC5(C4)CN(C4(C#N)CCOCC4)C5)nc3OCC(F)(F)F)nc2)ccc1Cl` [Example 1010, (S)-4-(6-(4-((5-(3-((1-(1H-tetrazol-1-yl)propan-2-yl)oxy)-4-chlorophenyl)pyrimidin-2-yl)amino)-3-(2,2,2-trifluoroethoxy)-1H-pyrazol-1-yl)-2-azaspiro[3.3]heptan-2-yl)tetrahydro-2H-pyran-4-carbonitrile] displayed an IC50 of under 10 nM.

Still in this assay, the particulars now being: Table 2; CaMKIIδ binding assay, activity given as class A/B/C.
Regarding `C[C@@H](Cn1cnnn1)Oc1cc(-c2cnc(Nc3cn([C@H]4CC[C@H](N5CCOCC5)CC4)nc3OCC(F)(F)F)nc2)ccc1F` [Example 813, 5-(3-(((S)-1-(1H-tetrazol-1-yl)propan-2-yl)oxy)-4-fluorophenyl)-N-(1-(trans-4-morpholinocyclohexyl)-3-(2,2,2-trifluoroethoxy)-1H-pyrazol-4-yl)pyrimidin-2-amine], the IC50 is under 10 nM.

Turning to `C[C@@H](Cn1cnnn1)Oc1cc(-c2cnc(Nc3cn(CC(O)CO)nc3C(F)(F)F)nc2)ccc1Cl` (stereo partly drawn) [Example 736, 3-(4-((5-(3-(((S)-1-(1H-tetrazol-1-yl)propan-2-yl)oxy)-4-chlorophenyl)pyrimidin-2-yl)amino)-3-(trifluoromethyl)-1H-pyrazol-1-yl)propane-1,2-diol], the IC50 was under 10 nM.

Staying with this assay, now noted: Table 2; activity class for CaMKIIδ.
Molecule `COc1cc(N2CCN3CCOCC3C2)ccc1Nc1ncc(-c2ccc(Cl)c(O[C@@H](C)Cn3cnnn3)c2)cn1` (stereo partly drawn) [Example 673, 5-(3-(((S)-1-(1H-tetrazol-1-yl)propan-2-yl)oxy)-4-chlorophenyl)-N-(4-(hexahydropyrazino[2,1-c][1,4]oxazin-8(1H)-yl)-2-methoxyphenyl)pyrimidin-2-amine] gave an IC50 of under 10 nM.

For the molecule `CCn1cc(Nc2ncc(-c3ccc(Cl)c(O[C@@H](C)Cn4cnnn4)c3)cn2)c(-c2ccccc2)n1` [Example 643, (S)-5-(3-((1-(1H-tetrazol-1-yl)propan-2-yl)oxy)-4-chlorophenyl)-N-(1-ethyl-3-phenyl-1H-pyrazol-4-yl)pyrimidin-2-amine], the IC50 was 10 to 100 nM.

The molecule `CCC(C)n1cc(Nc2ncc(-c3ccc(Cl)c(O[C@@H](C)Cn4cnnn4)c3)cn2)c(C(F)(F)F)n1` (stereo partly drawn) [Example 608, 5-(3-(((S)-1-(1H-tetrazol-1-yl)propan-2-yl)oxy)-4-chlorophenyl)-N-(1-(sec-butyl)-3-(trifluoromethyl)-1H-pyrazol-4-yl)pyrimidin-2-amine] yielded an IC50 of 10 to 100 nM.
